Results as given in ChEMBL document CHEMBL3124936, “Unusual fernane and gammacerane glycosides from the aerial parts of Spergula fallax” (J Nat Prod, 2014).

Assays:
[1] = Growth inhibition of human DLD1 cells assessed as inhibition of cell viability after 72 hrs by MTT assay; format: functional, cell-based; conditions: DLD-1, 72 h
HeLa = test: Growth inhibition of human HeLa cells assessed as inhibition of cell viability after 72 hrs by MTT assay; format: functional, cell-based

| SMILES | IC50 [1] [µM] | IC50 (HeLa) [µM] |
| --- | --- | --- |
| CC(=O)O[C@H]1CO[C@@H](O[C@@H]2C[C@]3(C)[C@H](CC[C@@H]4[C@@]5(C)CC[C@H](O)C(C)(C)[C@@H]5[C@@H](O)C[C@]43C)[C@@]3(C)C[C@@H](O[C@@H]4O[C@H](CO)[C@@H](O)[C@H](O)[C@H]4O)[C@H](O)C(C)(C)[C@H]23)[C@H](O)[C@H]1O | 52 | 52 |
| COc1cc([C@@H]2c3cc4c(cc3[C@@H](O[C@@H]3O[C@@H]5CO[C@@H](C)O[C@H]5[C@H](O)[C@H]3O)[C@H]3COC(=O)[C@H]23)OCO4)cc(OC)c1O [ETOPOSIDE] | 20 | 16 |
